pKi: −log10 of the molar value.
What was measured:
PDGFRβ = PDGFRβ (Homo sapiens (Human), UniProt P09619); experiment: PDGFRβ enzyme inhibition (ADP-Glo assay); assay type: biochemical; details: mean, n = 2 (nintedanib n = 34)
[1] = Pharmacokinetic measurements in rats, intra-tracheal dosing; assay type: in vivo; details: rat; for Lung conc i.t./i.v. Ratio at time 0.1 h / Lung conc i.t./i.v. Ratio at time 1.5 h / Lung conc i.t./i.v. Ratio at time 6 h / Lung conc i.t./i.v. Ratio at time 24 h: i.t. versus i.v.; for concentration at 0.1 h: read-out: lung concentration (nM) at time 0.1 h; for concentration at 1.5 h: read-out: lung concentration (nM) at time 1.5 h; for concentration at 6 h: read-out: lung concentration (nM) at time 6 h; for concentration at 24 h: read-out: lung concentration (nM) at time 24 h; for Kp at 0.1 h / Kp at 1.5 h / Kp at 6 h / Kp at 24 h: lung/plasma; for Kp at 0.1 h: read-out: lung/plasma conc ratio at time 0.1 h; for Kp at 1.5 h: read-out: lung/plasma conc ratio at time 1.5 h; for Kp at 6 h: read-out: lung/plasma conc ratio at time 6 h; for Kp at 24 h: read-out: lung/plasma conc ratio at time 24 h
[2] = Pharmacokinetic measurements in rats, intravenous dosing; assay type: in vivo; details: rat; for concentration at 0.1 h: read-out: lung concentration (nM) at time 0.1 h; for concentration at 1.5 h: read-out: lung concentration (nM) at time 1.5 h; for concentration at 6 h: read-out: lung concentration (nM) at time 6 h; for concentration at 24 h: read-out: lung concentration (nM) at time 24 h; for Kp at 0.1 h / Kp at 1.5 h / Kp at 6 h / Kp at 24 h: lung/plasma; for Kp at 0.1 h: read-out: lung/plasma ratio at time 0.1 h; for Kp at 1.5 h: read-out: lung/plasma ratio at time 1.5 h; for Kp at 6 h: read-out: lung/plasma ratio at time 6 h; for Kp at 24 h: read-out: lung/plasma ratio at time 24 h
PAMPA permeability assay = assay type: in vitro ADME; details: PAMPA experimental recovery
[3] = male, CD, lung, other: intra-tracheal
[4] = male, CD, other: intra-tracheal

PDGFRβ, sequence (P09619 33-1106): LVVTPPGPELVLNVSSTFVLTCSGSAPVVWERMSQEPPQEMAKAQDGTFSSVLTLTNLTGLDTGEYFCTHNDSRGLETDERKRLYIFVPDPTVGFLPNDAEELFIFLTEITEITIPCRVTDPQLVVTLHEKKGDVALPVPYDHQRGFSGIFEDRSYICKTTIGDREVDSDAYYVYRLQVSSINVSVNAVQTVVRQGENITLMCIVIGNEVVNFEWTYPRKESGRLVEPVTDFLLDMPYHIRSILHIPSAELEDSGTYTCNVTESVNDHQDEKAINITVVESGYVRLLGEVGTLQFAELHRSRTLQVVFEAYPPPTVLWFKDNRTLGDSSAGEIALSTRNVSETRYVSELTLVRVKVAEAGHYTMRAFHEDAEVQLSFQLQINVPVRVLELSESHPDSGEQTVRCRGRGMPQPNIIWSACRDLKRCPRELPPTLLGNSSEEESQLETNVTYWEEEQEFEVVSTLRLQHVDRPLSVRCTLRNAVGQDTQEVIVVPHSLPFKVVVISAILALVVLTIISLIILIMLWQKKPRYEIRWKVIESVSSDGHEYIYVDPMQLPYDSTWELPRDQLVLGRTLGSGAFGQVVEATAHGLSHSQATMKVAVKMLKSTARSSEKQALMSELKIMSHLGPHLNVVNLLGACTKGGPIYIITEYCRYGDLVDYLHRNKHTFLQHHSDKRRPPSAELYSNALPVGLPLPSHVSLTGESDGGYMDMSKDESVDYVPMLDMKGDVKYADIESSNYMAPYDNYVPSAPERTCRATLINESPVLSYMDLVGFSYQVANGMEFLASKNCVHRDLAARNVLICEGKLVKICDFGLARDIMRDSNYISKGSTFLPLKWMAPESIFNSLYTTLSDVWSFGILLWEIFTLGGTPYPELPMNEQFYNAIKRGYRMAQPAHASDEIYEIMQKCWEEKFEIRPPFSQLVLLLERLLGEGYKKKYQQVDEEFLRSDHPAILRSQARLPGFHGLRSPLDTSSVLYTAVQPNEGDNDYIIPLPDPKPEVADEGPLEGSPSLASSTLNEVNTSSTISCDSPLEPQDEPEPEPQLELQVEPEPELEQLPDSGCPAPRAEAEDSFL

SMILES | pKi (PDGFRβ) | Lung conc i.t./i.v. Ratio at time 0.1 h ([1]; 0.1 h) | Lung conc i.t./i.v. Ratio at time 1.5 h ([1]; 1.5 h) | Lung conc i.t./i.v. Ratio at time 6 h ([1]; 6 h) | Lung conc i.t./i.v. Ratio at time 24 h ([1]; 24 h) | concentration at 0.1 h ([2]; male, CD, lung, iv) [nM] | concentration at 1.5 h ([2]; male, CD, lung, iv) [nM] | Kp at 0.1 h ([2]; male, CD, iv) | Kp at 1.5 h ([2]; male, CD, iv) | concentration at 0.1 h [1, 3] [nM] | concentration at 1.5 h [1, 3] [nM] | concentration at 6 h [1, 3] [nM] | concentration at 24 h [1, 3] [nM] | Kp at 0.1 h [1, 4] | Kp at 1.5 h [1, 4] | Kp at 6 h [1, 4] | Kp at 24 h [1, 4] | further results
COC(=O)c1cc2c(cc1C)/C(=C(/Nc1ccc(S(=O)(=O)NCCN3CCN(C)CC3)cc1)c1ccccc1)C(=O)N2 [Example 1, (Z)-Methyl 5-methyl-3-(((4-(N-(2-(4-methylpiperazin-1-yl)ethyl)sulfamoyl)phenyl)amino)(phenyl)methylene)-2-oxoindoline-6-carboxylate] | 8.00 |  |  |  |  |  |  |  |  |  |  |  |  |  |  |  |  | 
COC(=O)c1cc2c(cc1C)/C(=C(/Nc1ccc(C(=O)NCC(=O)N3CCN(CCO)CC3)cc1)c1ccccc1)C(=O)N2 [Example 7, (Z)-Methyl 3-(((4-((2-(4-(2-hydroxyethyl)piperazin-1-yl)-2-oxoethyl)carbamoyl)phenyl)amino)(phenyl)methylene)-5-methyl-2-oxoindoline-6-carboxylate] | 8.24 |  |  | >42 | >10 | 99 | 44 | 2 | 12 | 1530 | 886 | 116 | 27 | 39 | > 265 | > 35 | > 8 | 
COC(=O)c1cc2c(cc1C)/C(=C(/Nc1ccc(C(=O)NCCN3CCNC(=O)C3)cc1)c1ccccc1)C(=O)N2 [Example 9, (Z)-Methyl 5-methyl-2-oxo-3-(((4-((2-(3-oxopiperazin-1-yl)ethyl)carbamoyl)phenyl)amino)(phenyl)methylene)indoline-6-carboxylate] |  | 12 | 51 | 45 | 21 |  |  |  |  |  |  |  |  |  |  |  |  | 
COC(=O)c1cc2c(cc1C)/C(=C(/Nc1ccc(C(=O)NC3CCN(C)CC3)cc1)c1ccccc1)C(=O)N2 [Example 18, (Z)-Methyl-5-methyl-3-(((4-((1-methylpiperidin-4-yl)carbamoyl)phenyl)amino)(phenyl)methylene)-2-oxoindoline-6-carboxylate] |  |  |  |  |  |  |  |  |  |  |  |  |  |  |  |  |  | % Recovery (PAMPA permeability assay): 84.5%; t½ ([2]; i.v. dose 0.1 (nintedanib 0.42)): 5.1 h; concentration at 0.1 h ([2]; i.v. dose 0.1 (nintedanib 0.42), 0.1 h): 638 nM; concentration at 1.5 h ([2]; i.v. dose 0.1 (nintedanib 0.42), 1.5 h): 306 nM; concentration at 6 h ([2]; i.v. dose 0.1 (nintedanib 0.42), 6 h): 201 nM; concentration at 0.1 h ([1]; i.t. dose 0.1 (nintedanib 0.42), 0.1 h): 6533 nM; concentration at 1.5 h ([1]; i.t. dose 0.1 (nintedanib 0.42), 1.5 h): 5987 nM; concentration at 6 h ([1]; i.t. dose 0.1 (nintedanib 0.42), 6 h): 2351 nM; concentration at 24 h ([1]; i.t. dose 0.1 (nintedanib 0.42), 24 h): 4523 nM

Continued, in another order:

pKi (PDGFRβ) | Lung conc i.t./i.v. Ratio at time 0.1 h ([1]; 0.1 h) | Lung conc i.t./i.v. Ratio at time 1.5 h ([1]; 1.5 h) | Lung conc i.t./i.v. Ratio at time 6 h ([1]; 6 h) | Lung conc i.t./i.v. Ratio at time 24 h ([1]; 24 h) | concentration at 0.1 h ([2]; male, CD, lung, iv) [nM] | concentration at 1.5 h ([2]; male, CD, lung, iv) [nM] | Kp at 0.1 h ([2]; male, CD, iv) | Kp at 1.5 h ([2]; male, CD, iv) | concentration at 0.1 h [1, 3] [nM] | concentration at 1.5 h [1, 3] [nM] | concentration at 6 h [1, 3] [nM] | concentration at 24 h [1, 3] [nM] | Kp at 0.1 h [1, 4] | Kp at 1.5 h [1, 4] | Kp at 6 h [1, 4] | Kp at 24 h [1, 4] | SMILES | further results
 | 3 | 7 | 15 | 14 |  |  |  |  |  |  |  |  |  |  |  |  | COC(=O)c1cc2c(cc1C)/C(=C(/Nc1ccc(C(=O)NCC3CCN(C)CC3)cc1)c1ccccc1)C(=O)N2 [Example 3, (Z)-Methyl 5-methyl-3-(((4-(((1-methylpiperidin-4-yl)methyl)carbamoyl)phenyl)amino)(phenyl)methylene)-2-oxoindoline-6-carboxylate] | 
7.89 | 7 | 12 | 2 | 7 | 765 | 330 | 127 | > 188 | 5510 | 4020 | 1070 | 1670 | 371 | > 2280 | > 606 | > 951 | COC(=O)c1cc2c(cc1C)/C(=C(/Nc1ccc(C(=O)NCCN3CCCN(C)CC3)cc1)c1ccccc1)C(=O)N2 [Example 5, (Z)-Methyl 5-methyl-3-(((4-((2-(4-methyl-1,4-diazepan-1-yl)ethyl)carbamoyl)phenyl)amino)(phenyl)methylene)-2-oxoindoline-6-carboxylate] | concentration at 6 h ([2]; male, CD, lung, iv): 499 nM; concentration at 24 h ([2]; male, CD, lung, iv): 247 nM; Kp at 6 h ([2]; male, CD, iv): > 284; Kp at 24 h ([2]; male, CD, iv): > 140
7.99 | 9.8 | 8.0 | 8.3 | 7.7 | 1000 | 949 | 77 | > 558 | 9830 | 7570 | 7820 | 6440 | 472 | > 4450 | > 4600 | > 3790 | COC(=O)c1cc2c(cc1C)/C(=C(/Nc1ccc(C(=O)NCCN3CCC(N(C)C)CC3)cc1)c1ccccc1)C(=O)N2 [Example 6, (Z)-Methyl 3-(((4-((2-(4-(dimethylamino)piperidin-1-yl)ethyl)carbamoyl)phenyl)amino)(phenyl)methylene)-5-methyl-2-oxoindoline-6-carboxylate] | concentration at 6 h ([2]; male, CD, lung, iv): 939 nM; concentration at 24 h ([2]; male, CD, lung, iv): 837 nM; Kp at 6 h ([2]; male, CD, iv): > 552; Kp at 24 h ([2]; male, CD, iv): > 492
8.09 |  |  |  |  |  |  |  |  |  |  |  |  |  |  |  |  | COC(=O)c1cc2c(cc1C)/C(=C(/Nc1ccc(C(=O)NCC(=O)N3CCN(C)CC3)cc1)c1ccccc1)C(=O)N2 [Example 8, (Z)-Methyl 5-methyl-3-(((4-((2-(4-methylpiperazin-1-yl)-2-oxoethyl)carbamoyl)phenyl)amino)(phenyl)methylene)-2-oxoindoline-6-carboxylate] | 
8.06 |  |  |  |  |  |  |  |  |  |  |  |  |  |  |  |  | COC(=O)c1cc2c(cc1C)/C(=C(/Nc1ccc(C(=O)NCCN3CCC(O)CC3)cc1)c1ccccc1)C(=O)N2 [Example 12, (Z)-Methyl 3-(((4-((2-(4-hydroxypiperidin-1-yl)ethyl)carbamoyl)phenyl)amino)(phenyl)methylene)-5-methyl-2-oxoindoline-6-carboxylate] | 

From US11208381B2, “Indole derivatives and their use as protein kinase inhibitors” (RespiVert Limited, priority 2016, dated 2021)
